Assay results reported in a compilation of properties of binary mixtures (doi:10.1016/j.molliq.2022.119209).

Assay: xn = mol fraction of the nth substance listed
Details: 100 kPa

O + N[C@@H]([C@H](O)C)C(=O)[O-].C(CCC)N1C(=[N+](C=C1)C)C
x2 = 0
Details	viscosity [mPa·s]
288.15 K	1.17
298.15 K	0.91
303.15 K	0.82
308.15 K	0.74
318.15 K	0.61

CCCC[n+]1ccn(C)c1C.NCC(=O)[O-] + O
viscosity [mPa·s]
Details	x1 = 0.0999	x1 = 0.1982	x1 = 0.3003	x1 = 0.3904	x1 = 0.4786	x1 = 0.6	x1 = 0.6999	x1 = 0.798	x1 = 0.9001	x1 = 1
288.15 K	25.2	40.3	63	92	125	180	232	298	390	480
293.15 K	18.2	29.1	45.4	–	90	129	163	205	257	318
298.15 K	–	–	–	49.1	67	–	–	–	178	218
303.15 K	10.4	17.3	26.7	37.7	51	71	88	105	–	152
308.15 K	–	13.1	–	–	38.3	53	–	77	90	109
313.15 K	6.3	10.8	16.6	–	31.2	43.1	53	62	–	84
318.15 K	5.7	9.6	14.7	20.5	27.5	38.1	–	–	61	72

CCCCn1cc[n+](C)c1C.C[C@@H](O)[C@H](N)C(=O)[O-] + O
viscosity [mPa·s]
Details	x1 = 0.0998	x1 = 0.1919	x1 = 0.2985	x1 = 0.4004	x1 = 0.4927	x1 = 0.599	x1 = 0.7003	x1 = 0.8001	x1 = 0.9012	x1 = 1
288.15 K	57	84	141	228	–	470	650	880	1181	1472
293.15 K	40.4	61	–	164	236	331	–	600	780	960
298.15 K	28.7	44	73	115	164	231	–	–	510	610
303.15 K	18.1	28.7	47.4	74	105	145	191	245	310	363
308.15 K	15.6	–	40.6	–	89	–	159	–	245	285
313.15 K	9.8	15.8	–	40.6	57	–	100	122	145	167
318.15 K	8	13.1	–	–	–	62	–	–	107	125

O + CCCC[n+]1ccn(C)c1C.NCC(=O)[O-]
x2 = 0
Details	viscosity [mPa·s]
288.15 K	1.17
293.15 K	1.03
298.15 K	0.91
303.15 K	0.82
318.15 K	0.61

O + CC(N)C(=O)[O-].CCCC[n+]1ccn(C)c1C
x2 = 0
Details	viscosity [mPa·s]
288.15 K	1.17
293.15 K	1.03
303.15 K	0.82
308.15 K	0.74

CC(N)C(=O)[O-].CCCC[n+]1ccn(C)c1C + O
viscosity [mPa·s]
Details	x1 = 0.1003	x1 = 0.2012	x1 = 0.3009	x1 = 0.4014	x1 = 0.4938	x1 = 0.5975	x1 = 0.6987	x1 = 0.7945	x1 = 0.8965	x1 = 1
288.15 K	28.4	52	86	127	168	215	270	336	429	520
293.15 K	–	40	64	95	126	161	–	244	307	–
298.15 K	17.1	30.5	48.9	72	96	123	151	183	226	268
303.15 K	12.8	23.3	36.8	54	72	92	113	136	165	192
308.15 K	10.6	19	30	44	58	75	92	110	131	150
313.15 K	8.1	14.7	23	33.5	44.2	57	–	82	97	110
318.15 K	6.7	12.1	–	27.5	36.3	46.7	57	67	77	–
